O=C(Nc1ccc(Oc2ccnc3c2CCN3)c(F)c1)c1c[nH]cc(-c2ccc(F)cc2)c1=O
TRAE Insomnia, any grade (300 mg QD (n=12)): 1 (8.3) n (%)
TRAE Insomnia, grade 3-4 (300 mg QD (n=12)): 0 n (%)
TRAE Leukopenia, any grade (300 mg QD (n=12)): 0 n (%)
TRAE Leukopenia, grade 3-4 (300 mg QD (n=12)): 0 n (%)
TRAE Nausea, any grade (300 mg QD (n=12)): 3 (25.0) n (%)
TRAE Nausea, grade 3-4 (300 mg QD (n=12)): 0 n (%)
TRAE Neuritis, any grade (300 mg QD (n=12)): 0 n (%)
TRAE Neuritis, grade 3-4 (300 mg QD (n=12)): 0 n (%)
TRAE Occult blood, any grade (300 mg QD (n=12)): 0 n (%)
TRAE Occult blood, grade 3-4 (300 mg QD (n=12)): 0 n (%)
TRAE Oedema peripheral, any grade (300 mg QD (n=12)): 0 n (%)
TRAE Oedema peripheral, grade 3-4 (300 mg QD (n=12)): 0 n (%)
TRAE Onycholysis, any grade (300 mg QD (n=12)): 0 n (%)
TRAE Onycholysis, grade 3-4 (300 mg QD (n=12)): 0 n (%)
TRAE Oropharyngeal pain, any grade (300 mg QD (n=12)): 0 n (%)
TRAE Oropharyngeal pain, grade 3-4 (300 mg QD (n=12)): 0 n (%)
TRAE PPE, any grade (300 mg QD (n=12)): 1 (8.3) n (%)
TRAE PPE, grade 3-4 (300 mg QD (n=12)): 0 n (%)
TRAE Paraesthesia, any grade (300 mg QD (n=12)): 0 n (%)
TRAE Paraesthesia, grade 3-4 (300 mg QD (n=12)): 0 n (%)
TRAE Proteinuria, any grade (300 mg QD (n=12)): 0 n (%)
TRAE Proteinuria, grade 3-4 (300 mg QD (n=12)): 0 n (%)
TRAE Pruritus, any grade (300 mg QD (n=12)): 0 n (%)
TRAE Pruritus, grade 3-4 (300 mg QD (n=12)): 0 n (%)
TRAE Rash maculo-papular, any grade (300 mg QD (n=12)): 1 (8.3) n (%)
TRAE Rash maculo-papular, grade 3-4 (300 mg QD (n=12)): 0 n (%)
TRAE Sinus tachycardia, any grade (300 mg QD (n=12)): 0 n (%)
TRAE Sinus tachycardia, grade 3-4 (300 mg QD (n=12)): 0 n (%)
TRAE Skin fissures, any grade (300 mg QD (n=12)): 0 n (%)
TRAE Skin fissures, grade 3-4 (300 mg QD (n=12)): 0 n (%)
TRAE Supraventricular extrasystoles, any grade (300 mg QD (n=12)): 0 n (%)
TRAE Supraventricular extrasystoles, grade 3-4 (300 mg QD (n=12)): 0 n (%)
TRAE Thrombocytopenia, any grade (300 mg QD (n=12)): 0 n (%)
TRAE Thrombocytopenia, grade 3-4 (300 mg QD (n=12)): 0 n (%)
TRAE Upper respiratory tract infection, any grade (300 mg QD (n=12)): 1 (8.3) n (%)
TRAE Upper respiratory tract infection, grade 3-4 (300 mg QD (n=12)): 0 n (%)
TRAE Urinary retention, any grade (300 mg QD (n=12)): 0 n (%)
TRAE Urinary retention, grade 3-4 (300 mg QD (n=12)): 0 n (%)
TRAE Urinary tract infection, any grade (300 mg QD (n=12)): 0 n (%)
TRAE Urinary tract infection, grade 3-4 (300 mg QD (n=12)): 0 n (%)
TRAE Ventricular arrhythmia, any grade (300 mg QD (n=12)): 1 (8.3) n (%)
TRAE Ventricular arrhythmia, grade 3-4 (300 mg QD (n=12)): 0 n (%)
TRAE Ventricular extrasystoles, any grade (300 mg QD (n=12)): 1 (8.3) n (%)
TRAE Ventricular extrasystoles, grade 3-4 (300 mg QD (n=12)): 0 n (%)
TRAE Vomiting, any grade (300 mg QD (n=12)): 0 n (%)
TRAE Vomiting, grade 3-4 (300 mg QD (n=12)): 0 n (%)
TRAE Weight loss, any grade (300 mg QD (n=12)): 0 n (%)
TRAE Weight loss, grade 3-4 (300 mg QD (n=12)): 0 n (%)
TRAE Accessory nerve disorder, any grade (400 mg BID (n=4)): 0 n (%)
TRAE Accessory nerve disorder, grade 3-4 (400 mg BID (n=4)): 0 n (%)
TRAE Activated partial thromboplastin time prolonged, any grade (400 mg BID (n=4)): 0 n (%)
TRAE Activated partial thromboplastin time prolonged, grade 3-4 (400 mg BID (n=4)): 0 n (%)
TRAE Anaemia, any grade (400 mg BID (n=4)): 0 n (%)
TRAE Anaemia, grade 3-4 (400 mg BID (n=4)): 0 n (%)
TRAE Anaesthesia oral, any grade (400 mg BID (n=4)): 0 n (%)
TRAE Anaesthesia oral, grade 3-4 (400 mg BID (n=4)): 0 n (%)
TRAE Arrhythmia, any grade (400 mg BID (n=4)): 0 n (%)
TRAE Arrhythmia, grade 3-4 (400 mg BID (n=4)): 0 n (%)
TRAE Arthralgia, any grade (400 mg BID (n=4)): 0 n (%)
TRAE Arthralgia, grade 3-4 (400 mg BID (n=4)): 0 n (%)
TRAE Asthenia, any grade (400 mg BID (n=4)): 0 n (%)
TRAE Asthenia, grade 3-4 (400 mg BID (n=4)): 0 n (%)
TRAE Blister, any grade (400 mg BID (n=4)): 0 n (%)
TRAE Blister, grade 3-4 (400 mg BID (n=4)): 0 n (%)
TRAE Chest discomfort, any grade (400 mg BID (n=4)): 0 n (%)
TRAE Chest discomfort, grade 3-4 (400 mg BID (n=4)): 0 n (%)
TRAE Chronic kidney disease, any grade (400 mg BID (n=4)): 0 n (%)
TRAE Chronic kidney disease, grade 3-4 (400 mg BID (n=4)): 0 n (%)
TRAE Constipation, any grade (400 mg BID (n=4)): 0 n (%)
TRAE Constipation, grade 3-4 (400 mg BID (n=4)): 0 n (%)
TRAE Cough, any grade (400 mg BID (n=4)): 0 n (%)
TRAE Cough, grade 3-4 (400 mg BID (n=4)): 0 n (%)
TRAE Decreased Ccr, any grade (400 mg BID (n=4)): 0 n (%)
TRAE Decreased Ccr, grade 3-4 (400 mg BID (n=4)): 0 n (%)
TRAE Decreased appetite, any grade (400 mg BID (n=4)): 0 n (%)
TRAE Decreased appetite, grade 3-4 (400 mg BID (n=4)): 0 n (%)
TRAE Diarrhoea, any grade (400 mg BID (n=4)): 0 n (%)
TRAE Diarrhoea, grade 3-4 (400 mg BID (n=4)): 0 n (%)
TRAE Dizziness, any grade (400 mg BID (n=4)): 0 n (%)
TRAE Dizziness, grade 3-4 (400 mg BID (n=4)): 0 n (%)
TRAE Dry mouth, any grade (400 mg BID (n=4)): 0 n (%)
TRAE Dry mouth, grade 3-4 (400 mg BID (n=4)): 0 n (%)
TRAE Dysgeusia, any grade (400 mg BID (n=4)): 0 n (%)
TRAE Dysgeusia, grade 3-4 (400 mg BID (n=4)): 0 n (%)
